Marks after values point to notes of the source that are not given here.
Key:
Format in all cases: in vivo
[1] = system: tobacco mosaic virus (TMV); assay: Induction of resistance to tobacco mosaic virus in tobacco (foliar spray); details: 20 μg/ml spray; for Effectiveness Covered (% decline in TMV lesions vs UTC): covered leaf (systemic response); for Effectiveness Uncovered (% decline in TMV lesions vs UTC): uncovered leaf (local response)
Description: Peptides were tested for the induction of resistance to tobacco mosaic virus (TMV) in tobacco. Briefly, three tobacco plants at 6-8 weeks old were selected per group (samples and controls). The bottom-most leaf of the plant was covered and the plant was sprayed with a solution of water (untreated control—UTC), peptide, or Proact (positive control). The spray was applied until the leaves were fully wetted, indicated by liquid dripping from the leaves. The plants were then allowed to dry and the leaf covering was removed.
Three days post-treatment, the previously-covered leaf and a leaf on the opposite side of the plant were then lightly dusted with diatomaceous earth and 20 ul of a 1.7 μg/ml solution of purified tobacco mosaic virus was applied. The TMV solution was then spread across the leaf surface by lightly rubbing solution and the diatomaceous earth across the surface of the leaves. Two minutes after inoculation, the diatomaceous earth was rinsed off the leaves with water. 3 days after TMV inoculation, the leaves were scored based on the number of TMV lesions observed. The leaf was also scored for signs of the hypersensitive response, including yellowing and wilting of the affected leaves.
Effectiveness described in Table 5 refers to the % decline in TMV lesions on treated vs UTC plants. A reduction of TMV on covered leaves indicates a systemic immune response in the plant while reduction on uncovered leaves indicates a local response. Asterisks indicate that the P-value derived from a T-test was <0.05.

corn = assay: Drought resistance in corn (foliar spray); details: for Dry Weight Increase / Fresh Weight Increase: corn, vs untreated control
Description: The effectiveness of peptide treatment in reducing drought stress was assessed in corn. 3.5 inch pots were filled with Sunshine #1 soil (SunGro Horticulture), fertilized with a 20-10-20 mixture. The soil was soaked and drained overnight. Seeds (either corn or soy, manually inspected to ensure uniform seed size) were planted at a depth of 1 inch for germination. Plants were grown in a greenhouse under 16 hour light days at >70° F. and 8 hour dark nights at >65° F. Prior to drought conditions, the plants were well-watered.
When the plants reached the V1 stage, plants were culled to achieve a uniform height (abnormally large and small plants were removed). Plants were then randomly assigned to control (spray without peptide) or treatment (spray with peptide) groups and heights were measured. Peptide was made up in a solution of 0.2 μg/ml or 2μg/ml in distilled water+0.01% Tween-20, and applied as a fine mist from a spray bottle until the solution drips from the leaves. After the peptide solutions were dried, the plants were again randomized in a randomized complete block design. Drought stress was initiated after the peptide treatment. This was caused by maintaining the water level at 25-50% of the maximum capacity for water (capacity was decided as the weight of the pot filled with saturated soil minus the weight of the filled pot prior to adding water).
The drought test phase ended after 2-3 weeks. At that time, the plant height was again measured and the growth rate was calculated as the difference between this and the previously-recorded height. The above-ground part portions of the plants were harvested and weighed to obtain fresh weight. The above-ground portion was also dried in an oven at 70° C. for 72 hours to obtain dry weight. All calculations were compared with matched untreated control plants.
The drought testing procedure was carried out in corn using a treatment of P12, P13-10, P13-11, P13-12, P13-14, P13-4, and P13-15 (SEQ ID NOs: 5, 16, 17, 18, 20, 10, and 21). Asterisks indicate statistical significance by P-value (*: P<0.1 and **: P<0.05)

soy = assay: Drought resistance in seed-treated soy; details: vs mock
Description: The effectiveness of peptide treatment in reducing drought stress was assessed in soy using a seed treatment strategy. This strategy largely mirrors examples 3 and 4.
Seeds were first sieved using mesh screens to a uniform size (14-17 mesh). The seeds were then coated with a mixture of peptide and Unicoat™ seed coat polymer in a Hege 11 Liquid Seed Treater (Wintersteiger) according to manufacturer recommendations. […]
3.5 inch pots were filled (approximately 0.2 L per pot) with Sunshine #1 mix (SunGro Horticulture), fertilized with 14-14-14 N,P,K Osmocote (Everris), and mixed for 20 minutes using a soil mixer M-5. Seeds were planted at a depth of 0.5 inch for germination. The pots were immediately irrigated by submergence then drained after about an hour. For each treatment group, 24 replicate seeds were planted. Plants were grown in a greenhouse under 16 hour light days at ˜75° F. and 8 hour dark nights at ˜65° F. Prior to drought conditions, the plants were well-watered.
Seven days after germination the heights of the plants were measured. This was determined as the distance between the soil surface and the shoot apical meristems (buds). The plants were randomized using a complete block design and subjected to a cyclic drought stress. Drought stress was imposed by withholding water for 3-4 days until the majority of plants were under medium to severe water stress. The severity of the stress was determined by the weight of the pot and visual determination of loss of turgor in the leaves (drooping). Once drought stress was attained, the pots were watered to full saturation. Full Saturation (100% pot capacity) is defined as the weight of the pot filled with water-saturated soil minus the weight of the filled pot prior to adding water. Drought stress was imposed for a total of 18 days.
At the end of the experiment (18 days after initiation of drought stress), the plant above the soil surface was then harvested for fresh and dry weights. Individual plants were cut near the soil surface and weighed immediately (fresh weight). The plants were then placed into labeled brown paper bags and dried in a 70° C. oven for 72 hours. A dry weight was then obtained. The following calculation was performed on the collected data: Fresh weight at harvest, and dry weight at harvest for the peptide-treated plants were expressed as a % change relative to the ‘mock’ treated plants.

Row | Sequence | Effectiveness Covered (% decline in TMV lesions vs UTC) [1] | Effectiveness Uncovered (% decline in TMV lesions vs UTC) [1] | Drought tolerance activity in corn, result in words (corn; corn foliar spray) | Dry Weight Increase (corn; foliar spray 0.2 μg/ml) | Fresh Weight Increase (corn; foliar spray 0.2 μg/ml) | % Change Dry Weight (soy; soy seed treatment 0.9 μg/seed) | % Change Fresh Weight (soy; soy seed treatment 0.9 μg/seed) | Dry Weight Increase (corn; foliar spray 2 μg/ml) | Fresh Weight Increase (corn; foliar spray 2 μg/ml) | % Change Dry Weight (soy; soy seed treatment 0.1 μg/seed) | % Change Fresh Weight (soy; soy seed treatment 0.1 μg/seed)
1 | AGQTSGMSPMEQLMKIFADITQSLFGDQDG (P13-12 peptide) [Peptide P13-12] | 37.9% | 44.1% | affords activity | 7.31* % | 3.93* % | −0.37% | 0.77% |  |  |  | 
2 | DDSLSGAGQTSGMSPMEQLMKIFADITQSLFGDQDG (P13-10 peptide) [Peptide P13-10] | 92.4% | 90.6* % |  |  |  |  |  | 7.56* % | 4.44% | −1.66% | 1.01%
3 | LSGAGQTSGMSPMEQLMKIFADITQSLFGDQDG (P13-11 peptide) [Peptide P13-11] | 73.1% | 74.9* % |  | 4.91* % | 3.81* % | 0.16% | 3.42% |  |  |  | 
